Patent US20190040063A1, “TRICYCLIC COMPOUND FOR BROMODOMAIN-CONTAINING PROTEIN INHIBITOR AND PREPARATION PHARMACEUTICAL COMPOSITION, AND APPLICATION THEREOF” (CHIA TAI TIANQING PHARMACEUTICAL GROUP CO., LTD., priority 2016, published 2019)

Tests used:
BRD4 = target: T1, BRD4 (Homo sapiens, UniProt O60885); assay: In vitro enzymatic activity assay: inhibition of BRD4 enzyme binding reaction by HTRF; details: GST-BRD4 (51-462) 1 nM, acetylated short peptide 100 nM, 23° C., 60 min
T1 construct: GST-BRD4 (51-462) (purchased from Cisbio); purchased Cisbio
Method: IC50 values of the compounds of the present application in inhibiting BRD4 enzyme binding reaction were determined by homogeneous time resolved fluorescence (HTRF). A compound was serially diluted 5-fold with 100% DMSO starting from 1 mM (totally 7 concentrations). 2 μL of the compound at each concentration was added into 48 μL of a reaction buffer solution (20 mM HEPES pH7.5, 150 mM NaCl, 5 mM DTT, 0.005% Tween 20 and 100 μg/ml BSA) to be diluted and fully mixed. Then 2.5 μL of the resulting mixture was added to a 384-well plate (OptiPlate-384, purchased from PerkinElmer), 5 μL of GST-BRD4 (51-462) (purchased from Cisbio) (final concentration: 1 nM) was added, and the resulting mixture was centrifuged, and fully mixed. Then 2.5 μL of a short peptide Biotin-AHA-SGRGK(Ac)GGK-(Ac)GLGK(Ac)GGAK(Ac)RHRKV) (synthesized by GL Biochem (Shanghai) Ltd) (final concentration: 100 nM) was added to initiate the reaction (total reaction volume: 10 μL). The 384-well plate was placed in an incubator at 23° C. to react for 60 min, and then 5 μL of Eu3+ cryptate-labeled anti-GST antibody (purchased from Cisbio) and 5 μL of Streptavidin-XL-665 (purchased from Cisbio) were added to terminate the reaction. After an additional 1 hour incubation in the incubator, the fluorescence values (excited at 320 nm, emitted light at 665 nm and 620 nm being detected, and the ratio of the two being the enzyme binding signal) were read on Envision (purchased from PerkinElmer). The binding strength of each compound to the BRD4 protein was determined respectively at 7 concentrations, and the data were calculated with GraphPad Prism software to obtain the IC50 value of the compound.

MV4-11 cells = assay: Cell proliferation activity assay (Cell-Titer Blue); format: cell-based; details: Homo sapiens, inhibiting cell proliferation, 72 h co-incubation
Method: Human acute […] leukemia cell line MV4-11 cells were cultured in PRIM1640 medium plus 10% fetal bovine serum (FBS, purchased from Biological Industries, BI) and 1% penicillin/streptomycin double antibody solution (P/S, purchased from Life Technology) at 37° C. with 5% CO2. On the day before the compound was tested, the MV4-11 cells were spread in a 96-well plate (purchased from Corning) at a concentration of 8,000 cells/195 μL/well. On the next day, the compound was serially diluted 3-fold with 100% DMSO starting from 10 mM (totally 10 concentrations). 2 μL of the resulting mixture at each concentration was diluted with 48 μL of PRIM1640 medium (purchased from Life Technology). 5 μL of the diluted compound at each concentration was added to the spread cell suspension, and the compound and cells were co-incubated in a cell incubator for 72 h (3 days), and then incubated for additional 4 h after adding 35 μL of Cell-Titer Blue reagent (purchased from Promega). Then the fluorescence values (excited at 560 nm, detected at 590 nm) were read on Flexstation III (purchased from Molecular Devices), and the data were calculated with GraphPad Prism software to obtain the IC50 value of the compound in inhibiting cell proliferation.

Row | Structure (SMILES) | IC50 (BRD4) [nM] | IC50 (MV4-11 cells) [nM]
1 | COc1ccc2c(n1)c1ncc(-c3c(C)noc3C)cc1n2C(c1ccccc1)C1CCOCC1 (stereo not drawn) [Compound 1, 4-{8-Methoxy-5-[phenyl(tetrahydro-2H-pyran-4-yl)methyl]-5H-pyrrolo[3,2-b:4,5-b′]dipyridin-3-yl}-3,5-dimethylisoxazole] | < 2 | 
2 | CCOC(=O)c1cc2c(cn1)c1ncc(-c3c(C)noc3C)cc1n2C(c1ccccc1)C1CCOCC1 (stereo not drawn) [Compound 3, Ethyl 3-(3,5-dimethylisoxazol-4-yl)-5-[phenyl(tetrahydro-2H-pyran-4-yl)methyl]-5H-pyrrolo[2,3-b:4,5-c′]dipyridine-7-carboxylate] | < 2 | 
3 | Cc1noc(C)c1-c1cnc2c3cnc(C(C)(C)O)cc3n(C(c3ccccc3)C3CCOCC3)c2c1 (stereo not drawn) [Compound 4, 2-{3-(3,5-Dimethylisoxazol-4-yl)-5-[phenyl(tetrahydro-2H-pyran-4-yl)methyl]-5H-pyrrolo[3,2-b:4,5-c′]dipyridin-7-yl}propan-2-ol] | < 2 | < 10
4 | Cc1noc(C)c1-c1cnc2c3ccc(C(C)(C)O)nc3n(C(c3ccccc3)C3CCOCC3)c2c1 (stereo not drawn) [Compound 6, 2-{3-(3,5-Dimethylisoxazol-4-yl)-5-[phenyl(tetrahydro-2H-pyran-4-yl)methyl]-5H-pyrrolo[2,3-b:4,5-b′]dipyridin-7-yl}propan-2-ol] | < 2 | 
5 | CCOC(=O)c1cc2c(cn1)c1ncc(-c3c(C)noc3C)cc1n2[C@H](c1ccccc1)C1CCOCC1 [Compound 9, Ethyl (S)-3-(3,5-dimethylisoxazol-4-yl)-5-[phenyl(tetrahydro-2H-pyran-4-yl)methyl]-5H-pyrrolo[3,2-b:4,5-c′]dipyridine-7-carboxylate] | < 2 | 
6 | Cc1noc(C)c1-c1cnc2c3cnc(C(C)(C)O)cc3n([C@H](c3ccccc3)C3CCOCC3)c2c1 [Compound 10, (S)-2-{3-(3,5-dimethylisoxazol-4-yl)-5-[phenyl(tetrahydro-2H-pyran-4-yl)methyl]-5H-pyrrolo[3,2-b:4,5-c′]dipyridin-7-yl}propan-2-ol] | < 2 | < 10
7 | Cc1noc(C)c1-c1cnc2c3cnc(C(C)(C)O)cc3n([C@@H](c3ccccc3)C3CCOCC3)c2c1 [Compound 12, (R)-2-{3-(3,5-dimethylisoxazol-4-yl)-5-[phenyl(tetrahydro-2H-pyran-4-yl)methyl]-5H-pyrrolo[3,2-b:4,5-c′]dipyridin-7-yl}propan-2-ol] | < 2 | < 10
8 | Cc1noc(C)c1-c1cnc2c3ccc(C(C)(C)O)nc3n([C@H](c3ccccc3)C3CCOCC3)c2c1 [Compound 16, (S)-2-{3-(3,5-dimethylisoxazol-4-yl)-5-[phenyl(tetrahydro-2H-pyran-4-yl)methyl]-5H-pyrrolo[2,3-b:4,5-b′]dipyridin-7-yl}propan-2-ol] | < 2 | < 10
9 | Cc1nnn(C)c1-c1cnc2c3ccc(C(C)(C)O)nc3n(C(c3ccccc3)C3CCOCC3)c2c1 (stereo not drawn) [Compound 20, 2-(3-(1,4-Dimethyl-1H-1,2,3-triazol-5-yl)-5-[phenyl(tetrahydro-2H-pyran-4-yl)methyl]-5H-pyrrolo[2,3-b:4,5-b′]dipyridin-7-yl)propan-2-ol] | < 2 | 
10 | Cc1noc(C)c1-c1cnc2c3ncc(C(C)(C)O)cc3n(C(c3ccccc3)C3CCOCC3)c2c1 (stereo not drawn) [Compound 22, 2-(7-(3,5-Dimethylisoxazol-4-yl)-5-(phenyl(tetrahydro-2H-pyran-4-yl)methyl]-5H-pyrrolo[3,2-b:4,5-b′]dipyridin-3-yl)propan-2-ol] | < 2 | < 10
11 | Cc1noc(C)c1-c1cc(F)c2c3ncc(C(C)(C)O)cc3n(C(c3ccccc3)C3CCOCC3)c2c1 (stereo not drawn) [Compound 24, 2-{7-(3,5-dimethylisoxazol-4-yl)-9-fluoro-5-[phenyl(tetrahydro-2H-pyran-4-yl)methyl]-5H-pyridino[3,2-b]indol-3-yl}propan-2-ol] | < 2 | < 10
12 | Cc1noc(C)c1-c1cnc2c3ccncc3n(C(c3ccccc3)C3CCOCC3)c2c1 (stereo not drawn) [Compound 37, 3,5-Dimethyl-4-{5-[phenyl(tetrahydro-2H-pyran-4-yl)methyl]-5H-pyrrolo[3,2-b:5,4-c′]dipyridin-3-yl}isoxazole] | < 2 | 
13 | CCCC(CCC)n1c2cc(C(C)(C)O)ncc2c2ncc(-c3c(C)noc3C)cc21 [Compound 39, 2-[3-(3,5-Dimethylisoxazol-4-yl)-5-(heptan-4-yl)-5H-pyrrolo[3,2-b:4,5-c′]dipyridin-7-yl]propan-2-ol] | < 2 | 
14 | Cc1noc(C)c1-c1cnc2c3cnc(C(C)(C)O)cc3n(C(c3ccccc3)c3cscn3)c2c1 (stereo not drawn) [Compound 41, 2-{3-(3,5-Dimethylisoxazol-4-yl)-5-[phenyl(thiazol-4-yl)methyl]-5H-pyrrolo[3,2-b:4,5-c′]dipyridin-7-yl}propan-2-ol] | < 2 | 
15 | Cc1noc(C)c1-c1cnc2c3ccc(O)nc3n(C(c3ccccc3)C3CCOCC3)c2c1 (stereo not drawn) [Compound 43, 3-(3,5-Dimethylisoxazol-4-yl)-5-[phenyl(tetrahydro-2H-pyran-4-yl)methyl]-5H-pyrrolo[2,3-b:4,5-b′]dipyridine-7-ol] | < 2 | < 10
16 | Cc1noc(C)c1-c1cnc2c3ccc(C(N)=O)nc3n(C(c3ccccc3)C3CCOCC3)c2c1 (stereo not drawn) [Compound 50, 3-(3,5-Dimethylisoxazol-4-yl)-5-[phenyl(tetrahydro-2H-pyran-4-yl)methyl]-5H-pyrrolo [2,3-b:4,5-b′]dipyridine-7-carboxamide] | < 2 | < 10
17 | Cc1noc(C)c1-c1cnc2c3ccc(N)nc3n(C(c3ccccc3)C3CCOCC3)c2c1 (stereo not drawn) [Compound 52, 3-(3,5-Dimethylisoxazol-4-yl)-5-[phenyl(tetrahydro-2H-pyran-4-yl)methyl]-5H-pyrrolo[2,3-b:4,5-b′]dipyridine-7-amine] | < 2 | < 10
18 | CON(C)C(=O)c1ccc2c3ncc(-c4c(C)noc4C)cc3n(C(c3ccccc3)C3CCOCC3)c2n1 (stereo not drawn) [Compound 55, 3-(3,5-Dimethylisoxazol-4-yl)-N-methoxy-N-methyl-5-[phenyl(tetrahydro-2H-pyran-4-yl)methyl]-5H-pyrrolo[2,3-b:4,5-b′]dipyridine-7-carboxamide] | < 2 | 
19 | CC(=O)c1ccc2c3ncc(-c4c(C)noc4C)cc3n(C(c3ccccc3)C3CCOCC3)c2n1 (stereo not drawn) [Compound 56, 1-{3-(3,5-Dimethylisoxazol-4-yl)-5-[phenyl(tetrahydro-2H-pyran-4-yl)methyl]-5H-pyrrolo[2,3-b:4,5-b′]dipyridin-7-yl}ethyl-1-one] | < 2 | 
20 | Cc1noc(C)c1-c1cnc2c3ccc(C(C)O)nc3n(C(c3ccccc3)C3CCOCC3)c2c1 (stereo not drawn) [Compound 57, 1-{3-(3,5-Dimethylisoxazol-4-yl)-5-[phenyl(tetrahydro-2H-pyran-4-yl)methyl]-5H-pyrrolo[2,3-b:4,5-b′]dipyridin-7-yl}ethan-1-ol] | < 2 | 
21 | Cc1noc(C)c1-c1cnc2c3ccc(C(C)(C)O)nc3n(C(c3ncccc3F)C3CCOCC3)c2c1 (stereo not drawn) [Compound 60] | < 2 | 
